# What was measured:
# Aurora B/INCENP^783–918 = target: T1, Aurora B/INCENP^783–918 (Homo sapiens, UniProt Q96GD4); assay: Aurora B/INCENP^783–918 kinase assay (ADP-Glo); type: biochemical
# T1 construct: purchased SignalChem
# [1] = test system: pLATS2(Ser 83) in HeLa cells; assay: Substrate phosphorylation immunofluorescence assay, pLATS2(Ser 83), HeLa; type: cell-based, human; details: Homo sapiens, HeLa, 8 h, read-out: pLATS2 (Ser83) IC50, HeLa; 8 h inhibitor treatment
# Experimental: We employed the protocol described in Figure 3D to analyze substrate phosphorylation in HeLa cells following treatment with all 10 inhibitors in dose–response. Asynchronous cells were incubated with vehicle (DMSO) or different inhibitor doses for 8 h and then fixed and labeled with a mixture of three antibodies directed against pLATS2(Ser 83), pH3(Ser 28), and MPM2 [which detects mitotic phosphoepitopes; ([86])]. While both the anti-pLATS2(Ser 83) and MPM2 antibodies are mouse monoclonals, they are of different IgG subclasses [IgG2b for anti-pLATS2(Ser 83) and IgG1 for MPM2], and can thus be detected with subclass-specific secondary antibodies (Table S3 in Supplementary Material).
# In control mitotic cells, pLATS2(Ser 83) is concentrated in foci around the spindle poles (Figure 3E; top row – green arrow) and pH3(Ser 28) is on the mitotic chromatin (Figure 3E; top row – red arrow). Selective kinase inhibition should result in loss of one signal but not the other, as illustrated by the example images for specific conditions in Figure 3E (middle and bottom rows). Cells were imaged in 4 channels to visualize pLATS2(Ser 83), pH3(Ser 28), MPM2, and DNA (labeled with Hoechst) and mitotic cells were segmented based on their bright MPM2 labeling (Figure 3E). Intensity and area thresholds were set to select the pLATS2(Ser 83) foci and the pH3(Ser 28)-labeled chromatin in their respective channels in DMSO-treated control cells and the same thresholds were applied for inhibitor-treated cells. The mean fluorescence intensity per pixel was measured to assess the activities of the kinases targeting these two substrate phosphorylation sites.
# Twelve thousand HeLa cells, 10,000 U2OS cells, or 8,000 RPE1 cells were seeded into 96-well glass-bottom Sensoplates (Greiner) 16 h before inhibitor addition. Prior to seeding, the glass-bottom plates were coated with poly-L-lysine (Sigma). […] After 8 h cells were fixed with 4% PFA for 20 min at room temperature. The fixed cells were washed with PBS. For immunostaining, cells were permeabilized and blocked with PBS containing 10% normal donkey serum (Jackson ImmunoResearch) and 0.1% Triton-X100 for 1 h at room temperature. Primary antibodies against phospho-LATS2 (Ser 83), phospho-histone H3(Ser 28), and anti-phospho-MPM2 (see Table S3 in Supplementary Material) were incubated for 1 h at room temperature. […] Cells were then washed twice with PBS containing 0.1% Triton-X100. Image acquisition in four channels was performed using a CV7000 spinning disk confocal system (Yokogawa Electric Corporation) with a 40 × 0.95 NA U-PlanApo objective and 2560 × 2160 pixel sCMOS camera. […] Fifty fields per well were imaged with quadruplicate wells for each condition. Image analysis was done using the CV7000 image analysis software (Yokogawa Electric Corporation). Between 100 and 1,000 mitotic cells per condition were segmented applying object identification parameters to select for bright MPM2 labeling. Using a nuclear identifier protocol, minimum intensity thresholds were set for pLATS2(Ser 83) and the pH3(Ser 28) signals, and the resulting identified objects were eroded, dilated, and filtered for size by user-defined thresholds. For only the MPM2-positive mitotic cells, the mean fluorescence intensity of the identified pLATS2(Ser 83) and pH3(Ser 28) objects was measured, and the average intensity per cell per well was calculated. The same thresholds were applied for all of the inhibitor-treated samples, which were processed, imaged, and analyzed in parallel with control DMSO-treated cells. Data were fit using a four-parameter, variable slope fit in Prism (GraphPad). Primary and secondary antibody dilutions can be found in Table S3 in Supplementary Material.
# [2] = test system: pH3(Ser 28) in HeLa cells; assay: Substrate phosphorylation immunofluorescence assay, pH3(Ser 28), HeLa; type: cell-based, human; details: 8 h inhibitor treatment
# Experimental: After 8 h cells were fixed with 4% PFA for 20 min at room temperature. The fixed cells were washed with PBS. For immunostaining, cells were permeabilized and blocked with PBS containing 10% normal donkey serum (Jackson ImmunoResearch) and 0.1% Triton-X100 for 1 h at room temperature. Primary antibodies against phospho-LATS2 (Ser 83), phospho-histone H3(Ser 28), and anti-phospho-MPM2 (see Table S3 in Supplementary Material) were incubated for 1 h at room temperature. […] Cells were then washed twice with PBS containing 0.1% Triton-X100. […] Fifty fields per well were imaged with quadruplicate wells for each condition. Image analysis was done using the CV7000 image analysis software (Yokogawa Electric Corporation). Between 100 and 1,000 mitotic cells per condition were segmented applying object identification parameters to select for bright MPM2 labeling. Using a nuclear identifier protocol, minimum intensity thresholds were set for pLATS2(Ser 83) and the pH3(Ser 28) signals, and the resulting identified objects were eroded, dilated, and filtered for size by user-defined thresholds. […] The same thresholds were applied for all of the inhibitor-treated samples, which were processed, imaged, and analyzed in parallel with control DMSO-treated cells. Data were fit using a four-parameter, variable slope fit in Prism (GraphPad).
# HeLa cells = assay: Live cell-activated caspase 3/7 assay; type: cell-based, human; details: within 24 h of treatment
# Experimental: HeLa cells (6,000/well) were seeded in 96-well μCLEAR plates (Greiner) in 100 μL DMEM plus serum, and incubated for 16 h at 37°C and 5% CO2. […] After 24 h 2 μM CellEvent Caspase-3/7 Green Reagent (Life Technologies), and NucBlue Live ReadyProbes Reagent (Hoechst 33342; Life Technologies) were added. Cells were imaged after 60 min on a CV7000 spinning disk confocal system (Yokogawa Electric Corporation) with a 20 × 0.75 NA U-PlanApo objective and 2560 × 2160 sCMOS camera with 2 × 2 binning. The imaging chamber was maintained at 37°C and 5% CO2. Six to eight fields/well were imaged, with duplicate wells for each condition. 3 μm × 2 μm z-sections in the blue (40% power, 300 ms, 35% gain) and green (40% power, 300 ms, 35% gain) channels were captured in each field. The apoptotic fraction was calculated by dividing the number of cells fluorescing at 530 nm (corresponding to the cleaved caspase reporter reagent) by the number of nuclei (Hoechst staining). Image analysis was done using the CV7000 image analysis software (Yokogawa Electric Corporation).
# Aurora A = details: ref 59; read-out: Aurora A IC50 (Published); cited from earlier work
# Aurora B = details: ref 59; read-out: Aurora B IC50 (Published); cited from earlier work
# Aurora A/TPX2^1–43 = target: T2, Aurora A/TPX2^1–43 (Homo sapiens, UniProt O14965); assay: Aurora A/TPX2^1–43 kinase assay (ADP-Glo)
# T2 sequence (O14965 1-403): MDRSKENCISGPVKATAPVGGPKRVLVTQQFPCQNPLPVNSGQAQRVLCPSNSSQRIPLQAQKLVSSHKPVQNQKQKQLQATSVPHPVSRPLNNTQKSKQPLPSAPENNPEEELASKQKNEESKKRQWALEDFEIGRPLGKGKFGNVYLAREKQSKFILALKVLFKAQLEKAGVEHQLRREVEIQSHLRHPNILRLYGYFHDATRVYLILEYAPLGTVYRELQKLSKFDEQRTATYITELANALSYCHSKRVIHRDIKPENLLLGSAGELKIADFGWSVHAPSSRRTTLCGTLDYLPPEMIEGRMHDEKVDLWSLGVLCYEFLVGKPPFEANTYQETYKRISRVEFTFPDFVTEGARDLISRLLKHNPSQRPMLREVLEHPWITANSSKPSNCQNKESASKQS
# T2 sequence (Q9ULW0 1-43 partner limits assumed): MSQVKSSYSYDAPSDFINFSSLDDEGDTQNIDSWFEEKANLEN
# [3] = test system: HeLa, RPE1, and U2OS cells; assay: Cellular proliferation analysis (ATPLite, 24 h)
# [4] = target: T3, full-length human Aurora A (Homo sapiens, UniProt O14965); assay: Aurora A kinase assay (ADP-Glo, Kemptide substrate)
# T3 sequence (O14965 1-403): T2 sequence (O14965 1-403)
# [5] = fold difference in potency calculated by dividing Ki values
# T1 sequence (Q96GD4 whole entry): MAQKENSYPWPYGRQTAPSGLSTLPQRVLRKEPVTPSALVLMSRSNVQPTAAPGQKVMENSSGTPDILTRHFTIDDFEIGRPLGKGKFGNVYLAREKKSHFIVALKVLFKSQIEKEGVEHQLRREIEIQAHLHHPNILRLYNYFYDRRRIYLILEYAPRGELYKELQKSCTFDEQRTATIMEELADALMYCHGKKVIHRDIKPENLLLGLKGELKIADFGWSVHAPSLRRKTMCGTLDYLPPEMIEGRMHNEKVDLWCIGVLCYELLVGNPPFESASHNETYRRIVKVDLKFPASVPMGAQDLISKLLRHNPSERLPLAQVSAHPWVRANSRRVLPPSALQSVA
# T1 sequence (Q9NQS7 783-918 partner limits assumed): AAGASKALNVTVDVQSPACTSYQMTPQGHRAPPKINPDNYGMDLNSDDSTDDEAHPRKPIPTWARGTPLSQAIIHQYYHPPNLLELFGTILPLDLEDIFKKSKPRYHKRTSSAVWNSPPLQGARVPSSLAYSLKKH
compound,measurement,setting,value
CCN1CCN(C(=O)Cc2ccc(Nc3ncc(F)c(Nc4ccc(C(=O)Nc5ccccc5Cl)cc4)n3)cc2)CC1 [Genentech Aurora Inhibitor 1],Ki,Aurora B/INCENP^783–918,156 ± 33.7 nM
same,IC50,[1],490 nM
same,pHistone H3 (Ser28) IC50,[2],NE@9 μM
same,pHistone H3 (Ser28) IC50,[2]; listed as Genentech Aurora Inh 1,NE (9 μM)
same,Apoptosis,HeLa cells,apoptotic cell death
same,IC50,Aurora A,3.4 nM
same,IC50,Aurora B,3400 nM
same,Ki,Aurora A/TPX2^1–43,0.24 ± 0.02 nM
same,Increase of affinity for Aurora A by TPX2^1–43,Aurora A/TPX2^1–43; Aurora A Ki versus Aurora A/TPX2^1–43 Ki,2.5 fold
same,Selectivity ratio Aur A-TPX2^1–43 versus Aur B-INCENP^783–918,Aurora A/TPX2^1–43; [5],654 fold
same,Toxicity / cytotoxicity (cellular proliferation),"[3]; HeLa, RPE1, U2OS, 24 h (Figure 4D, Figure S2B)",cytotoxic
same,Effect on proliferation,"[3]; HeLa, within 24 h of treatment",significantly reduced proliferation
same,Toxicity (reduced proliferation),"[3]; U2OS and RPE1 cells, 24 h",toxicity
same,Ki,"[4]; Aurora A Ki Mean ± SD, [ATP] = Km(ATP) (35 μM), Ki calculated from IC50 with tight-binding equation",0.57 ± 0.06 nM
same,Selectivity ratio Aur A versus Aur A-TPX2^1–43,[4]; [5],0.4 fold
same,Selectivity ratio Aur A versus Aur B-INCENP^783–918,[4]; [5],274 fold
